Assay results reported in article PMC7318222, “A Family of Water‐Immiscible, Dipolar Aprotic, Diamide Solvents from Succinic Acid” (Chemsuschem, 2020).

What was measured:
GR = target: T1, GR (Homo sapiens, UniProt P04150); assay: GR-anti CALUX reporter gene assay (antagonistic mode); assay type: cell-based; design: key: –: no effect observed up to the highest test concentration; conditions: PC20, 24 h exposure
T1 construct: expression construct for the full-length human receptor under investigation; expressed in transfected cells; host or cells: human U2-OS cells (ATCC HTB-96), stably transfected
T1 sequence (P04150 1-777): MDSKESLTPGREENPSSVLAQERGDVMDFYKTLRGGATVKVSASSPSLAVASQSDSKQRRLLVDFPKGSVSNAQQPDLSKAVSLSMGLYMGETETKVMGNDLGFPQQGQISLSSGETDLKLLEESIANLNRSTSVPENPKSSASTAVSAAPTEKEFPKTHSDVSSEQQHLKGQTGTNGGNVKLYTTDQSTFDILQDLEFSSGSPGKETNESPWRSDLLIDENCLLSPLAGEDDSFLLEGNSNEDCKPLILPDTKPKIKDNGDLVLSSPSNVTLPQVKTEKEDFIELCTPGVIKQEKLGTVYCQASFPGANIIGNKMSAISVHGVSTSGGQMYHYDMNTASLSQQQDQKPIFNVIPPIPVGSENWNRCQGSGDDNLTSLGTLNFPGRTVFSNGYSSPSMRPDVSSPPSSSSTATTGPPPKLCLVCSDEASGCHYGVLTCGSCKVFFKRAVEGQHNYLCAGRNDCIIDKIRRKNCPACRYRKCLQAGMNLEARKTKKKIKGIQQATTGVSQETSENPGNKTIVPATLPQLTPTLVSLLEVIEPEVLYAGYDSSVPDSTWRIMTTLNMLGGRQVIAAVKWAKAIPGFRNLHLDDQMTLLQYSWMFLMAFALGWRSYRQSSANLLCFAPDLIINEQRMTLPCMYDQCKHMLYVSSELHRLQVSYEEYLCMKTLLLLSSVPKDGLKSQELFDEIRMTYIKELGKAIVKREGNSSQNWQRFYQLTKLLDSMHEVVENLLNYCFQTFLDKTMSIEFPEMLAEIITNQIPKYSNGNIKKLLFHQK
Excerpt: nitroaniline ≥98.0% was purchased from Alfa Aeser. Cyrene was supplied by Circa group. N-butylpyrrolidinone was supplied by Eastman chemicals. […]
(§1) Polyarylethersulfone of 55,000 Da were obtained from INGE.BASF, Germany. The CALUX cell lines have been described previously.[1] They are based on human U2-OS cells (ATCC, HTB-96) stably transfected with an expression construct for the full-length human receptor under investigation, and a reporter construct consisting of multimerized responsive elements for the cognate receptor coupled to a minimal promoter element (TATA) and a luciferase gene. Cells were maintained as described previously,[2] using cell culture media and supplements from Fisher Scientific as described in the experimental procedures section. […]
(§2) In vitro reporter gene assays
(§3) The automated CALUX assays were carried out similarly as described earlier,[12] with some adaptations. In brief, the assay was performed in CO2 independent medium (Fisher Scientific, […]
(§4) with 30 µl cell suspension/well. After 24 h, exposure medium was prepared. A dilution series in 0.5log unit increments of each test compound (in DMSO) was added to a 96-wells plate containing assay medium (2% v/v). Of this exposure mixture, 30 µl was added to the assay plates containing the CALUX cells, resulting in a final DMSO concentration of 1%. Additionally, DMSO blanks and a full dose response curve of the relevant reference compound were included on each plate. All samples were tested in triplicate. The preparation of the compound dilution series as well as the exposure of the cells were performed on a Hamilton StarLET liquid handling robot coupled to a Cytomat incubator.
Directly after exposure, plates were sealed with non-breathing plate seals (Plate sealer, easy seal […]
After 24 h the exposure medium was removed using an EL406 washer-dispenser (BioTek) and 10 µl/well triton lysisbuffer was added by the EL406.
(§5) Subsequently, the luciferase signal was measured in a luminometer (InfinitePro coupled to a Connect Stacker, both TECAN). In order to be able to detect receptor antagonism, several assays were also performed in antagonistic mode. The assay procedure was as described above, with the only exception that the EC50 concentration of the reference agonist was present during the exposure.
The luminometer data was analysed as follows; the average of the triplicate wells was determined, […]

AP1 = AP1 CALUX assay (cell cycle control); assay type: cell-based, human; design: key: –: no effect observed up to the highest test concentration; conditions: cell signaling pathway assay, 24 h exposure
Excerpt: Six of the CALUX assays (TCF through p53) detect activation of several cellular signaling pathways, which are indicative of general stress and acute toxicity, but also a range of more specific types of toxicity, including reproductive toxicity. […]
DCM ≥99.5%, chloroform ≥99.5%, DMSO ≥99.0% were purchased from VWR. […]
as §1, §2, §3
as §4, with “supplement (Fisher Scientific, 11574466), 10 U/mL penicillin and 10 µg/mL streptomycin. A cell suspension in assay medium was made of 1 × 10^5cells/mL, and white 384-wells plates were seeded with” for “with”
Directly after exposure, plates were sealed with non-breathing plate seals (Plate sealer, easy seal transparent; Greiner-Bio-One, 676001). After 24 h the exposure medium was removed using an EL406 washer-dispenser (BioTek) and 10 µl/well triton lysisbuffer was added by the EL406.
as §5
The luminometer data was analysed as follows; the average of the triplicate wells was determined, and the average blank (DMSO) value was subtracted. For receptor-based assays the maximum response elicited by the reference compound was set to 100% (full receptor- or pathway activation), and the other values were scaled accordingly. GraphPad Prism was used to fit a sigmoidal curve through the data (four parameters, variable slope). […] For antagonist- and cytotoxicity experiments, PC20 values were determined instead, which was defined as the concentration where the test compound causes a 20% decrease in the basal signal, which was […]
curve, the signal induction above background (DMSO) was determined, and the concentration where the compound elicited a 1.5-fold increase above background was used as LEC.

CCCCN(CCCC)C(=O)CCC(=O)N(CCCC)CCCC [TBSA, N,N,N′,N′‐tetrabutylsuccindiamide]
LEC GR‐anti (GR): – | LEC AP1 (AP1): –

CCCCN(CC)C(=O)CCC(=O)N(CC)CCCC [EBSA, N,N′‐diethyl‐N,N′‐dibutylsuccindiamide]
LEC GR‐anti (GR): – | LEC AP1 (AP1): –

CN1CCCC1=O [NMP, N‐methyl‐2‐pyrrolidone, reference compound]
LEC AP1 (AP1): −1.5 Log M

CCCCN(C)C(=O)CCC(=O)N(C)CCCC [MBSA, N,N′‐dimethyl‐N,N′‐dibutylsuccindiamide]
LEC GR‐anti (GR): – | LEC AP1 (AP1): –

CCCCN1CCCC1=O [NBP, N‐Butylpyrrolidinone, reference compound]
LEC GR‐anti (GR): – | LEC AP1 (AP1): –
